Data on 30 compounds can be found in patent US9504702B2, “Methods of inhibition of protein fucosylation in vivo using fucose analogs” (Seattle Genetics, Inc., priority 2010, dated 2016).

Test [1] concerns antibody core fucosylation (CHO DG44 cell line producing humanized IgG1 anti-CD70 antibody h1F6). Nature of the test: Inhibition of antibody core fucosylation in CHO DG44 cell culture producing h1F6. To be noted: day 5, CHO DG44 h1F6; for Inhibition at 50 μM: 50 μM fucose analog; for Inhibition at 1 mM / inhibition at 1000 µM: 1 mM fucose analog. It counts as cell-based. How it is done: Fucose analogs have been evaluated for their effect on antibody core fucosylation at concentrations of 50 μM and 1 mM generally as described in Published US Patent Application 2009-0317869. Briefly, the protocol was as follows: A CHO DG44 cell line producing a humanized IgG1 anti-CD70 monoclonal antibody, h1F6 (see International Patent Publication WO 06/113909) was cultured at 7.5×10^5 cells per mL in 2 mLs of CHO culture media at 37°, 5% CO2 and shaking at 100 RPM in a 6 well tissue culture plate. Media was supplemented with insulin like growth factor (IGF), penicillin, streptomycin and either 1 mM or 50 μM of the fucose analog. On day 5 post inoculation, the culture was centrifuged at 13000 RPM for 5 minutes to pellet the cells; antibodies were then purified from supernatant.
Antibody purification was performed by applying the conditioned media to protein A resin pre-equilibrated with 1× phosphate buffered saline (PBS), pH 7.4. After washing resin with 20 resin bed volumes of 1×PBS, antibodies were eluted with 5 resin bed volumes of Immunopure IgG elution buffer (Pierce Biotechnology, Rockford, Ill.). A 10% volume of 1M Tris pH 8.0 was added to neutralize the eluted fraction.

Test [2] has as its system LP-1, a human multiple myeloma cell line (IgG fucosylation). Nature of the test: Fucosylation of LP-1-generated IgG, AOL dot blot. It is filed as cell-based. The settings on record: for % of control fucosylated IgG value / inhibition of IgG fucosylation in human cells (decrease in AOL signal, dot blot) / dot blot results (% fucose signal of control): 100 μM; for % of control fucosylated IgG value / activity at 100 µM: 5 days, AOL dot blot, multiple samples separated by semicolon; for % of control fucosylated IgG value / inhibition of IgG fucosylation in human cells (decrease in AOL signal, dot blot) / activity at 100 µM: LP-1 cells; for dot blot results (% fucose signal of control): LP-1-generated IgG; for activity at 100 µM: Homo sapiens, LP-1, 120 h, read-out: % of control fucosylated IgG value. How it is done:
To further evaluate the activities of different fucose analogs, 48 different fucose analogs and other four glycosylation inhibitors were tested for their ability to affect the fucosylation the LP-1-generated IgG. LP-1 cells (250,000 cells/mL, 3 mL per compound in 6-well plates) were incubated with 100 μM of each fucose analog for 5 days at 37° C. with a humidified atmosphere of 5% CO2 in IgG-depleted tissue culture media (90% RPMI with 10% IgG-depleted heat inactivated FBS). The IgG was isolated as described above using only 0.5 mL of MabSelect™ protein A resin slurry and one spin cup per sample with elution in 400 μL of IgG elution buffer into 25 μL of 9 M Tris buffer, pH 9. The eluates were concentrated to 10-20 μL per sample and 2 μL of each of the concentrated eluates were dotted onto a nitrocellulose membrane and stained with Ponceau S to estimate and adjust the sample loading for AOL staining. From this estimation of total protein in each sample, approximately 0.5 μg of each sample was dotted onto the membrane, air-dried, and stained with Ponceau S. An image of this stained membrane was captured using an Alpha Innotech FlourChem® Q system. The membrane was then blocked with 5% Bovine Serum Albumin (BSA) in Tris Buffered Saline (TBS) for 1 hr, washed with TBST (TBS with […]) 3 times and then incubated with 5 μg/ml biotinylated-AOL for 1 hr. The membrane was washed again with TBST 3 times, followed by Streptavidin-HRP incubation for 30 min and final washes with TBST 3 times.

[3] abbreviates: 120 h, read-out: Inhibition at 50 μM.
The mark [4] stands for this setting: CHO-DG44, 120 h, read-out: Inhibition at 50 μM.

Like-named read-outs stand apart in the source and are kept apart here.

As a reminder, the Inhibition is the change of the read-out against control, counted positive when it falls. Regarding “1-methyl alkynyl fucose triacetate [SGD-2059]”, in test [1], the “Inhibition at 50 μM” value is 68% and the “Inhibition at 1 mM” value is recorded as above 80%. In test [2], the “% of control fucosylated IgG value” is on record as 89 % of control.

As to “5-carboxamido fucose tetraacetate [SGD-1995]”, the “% of control fucosylated IgG value” in test [2] is 79 % of control.

For the compound 5-epoxy fucose tetraacetate [SGD-2020], in test [2], the “% of control fucosylated IgG value” is on record as 5 % of control; the “inhibition of IgG fucosylation in human cells (decrease in AOL signal, dot blot)” value (from here on “inhibition … (decrease in AOL signal, dot blot)”) is “potentially strong inhibitors”; the “dot blot results (% fucose signal of control)” value was 5 % fucose signal of control.

With “6-alkyne-6-acetoxy fucose tetraacetate [SGD-2004]”, the “% of control fucosylated IgG value” in test [2] is recorded as 29 % of control.

As for `CC(=O)OC1C(C)OC(OC(C)=O)C(F)(F)C1OC(C)=O` (stereo not drawn) [2-deoxy-2,2-difluorofucopyranose triacetate (alpha)], in test [1], the “Inhibition at 50 μM” value was found to be 0% and the “Inhibition at 1 mM” value stood at 64%.

For `CC(=O)OC1C(C)OC(OC(C)=O)C(F)(F)C1OC(C)=O` (stereo not drawn) [2-deoxy-2,2-difluorofucopyranose triacetate (beta)], in test [1], the “Inhibition at 50 μM” value was found to be 0% and the “Inhibition at 1 mM” value is recorded as 75%.

On to `CC(=O)OC(C#N)[C@H]1OC(OC(C)=O)[C@@H](OC(C)=O)[C@@H]1OC(C)=O` (stereo partly drawn) [5-cyanoarabinofuranose tetraacetate], for which the Inhibition at 50 μM in test [1] (setting [3]) was in the range of 5 to 10%.

On to `CC(=O)OC1OC(C#N)[C@@H](OC(C)=O)[C@@H](OC(C)=O)[C@@H]1OC(C)=O` (stereo partly drawn) [5-cyanoarabinopyranose tetraacetate], for which, in test [1] (setting [3]), the Inhibition at 50 μM amounted to 20%.

The inhibition is the relative decrease from the control value, in per cent. Take `CC(=O)OC1OC(CCl)[C@@H](OC(C)=O)[C@@H](OC(C)=O)[C@@H]1OC(C)=O` (stereo partly drawn) [6-chloro-fucose tetraacetate, (3S,4R,5S)-6-(chloromethyl)tetrahydro-2H-pyran-2,3,4,5-tetrayl tetraacetate]: the Inhibition at 50 μM in test [1] (setting [4]) stood at 20%. The compound further came in with an inhibition at 1000 µM in test [1] (CHO-DG44, 120 h) of 20 to 30%.

For `CC(=O)OC1OC(CI)[C@@H](OC(C)=O)[C@@H](OC(C)=O)[C@@H]1OC(C)=O` (stereo partly drawn) [6-iodo-fucose tetraacetate, (3S,4R,5S)-6-(iodomethyl)tetrahydro-2H-pyran-2,3,4,5-tetrayl tetraacetate], the Inhibition at 50 μM in test [1] (setting [4]) was 3%. The same compound came in with an inhibition at 1000 µM in test [1] (CHO-DG44, 120 h) of 30%.

Take `C#CC1OC(OC(=O)C(C)(C)C)C(OC(=O)C(C)(C)C)C(OC(=O)C(C)(C)C)C1O` (stereo not drawn) [Alkynyl fucose 1,2,3-(trimethylacetate), 5-ethynylarabinose 1,2,3-(trimethylacetate)]: the “Inhibition at 50 μM” value in test [1] is on record as around 0%.

Consider `C#CC1OC(OC(=O)C(C)(C)C)C(O)C(OC(=O)C(C)(C)C)C1O` (stereo not drawn) [Alkynyl fucose di(trimethylacetate), 5-ethynylarabinose 1,3-(trimethylacetate)], for which the “Inhibition at 50 μM” value in test [1] is reported as above 80%.

For `O=C1O[C@H]([C@@H](O)CO)[C@@H](O)[C@@H]1O` [SGD-1931, L-galactono-1,4-lactone], the activity at 100 µM in test [2] turned out to be 81%.

For the compound `CO[C@@H]1O[C@@H](C)[C@@H](O)[C@@H](O)[C@@H]1O` [SGD-1932, Methyl a-L-fucopyranoside], in test [2], the “% of control fucosylated IgG value” is given as 87 % of control.

Turning to `C#CCNC[C@H](O)[C@@H](O)[C@@H](O)[C@H](O)C=O` [SGD-1950, 6-propargylamino fucose], the activity at 100 µM in test [2] stood at 40%.

With `CC(=O)OC(CC(=O)O)[C@@H](OC(C)=O)[C@@H](OC(C)=O)[C@@H](C=O)OC(C)=O` (stereo partly drawn) [SGD-1959, 5-carboxymethyl arabinose tetraacetate], the Inhibition at 50 μM in test [1] (setting [3]) amounted to 30%. Moreover, the inhibition at 1000 µM in test [1] (120 h) was above 80%. The activity at 100 µM in test [2] was 94%.

Take `O[C@H]1[C@H](O)[C@@H](O)CN2CC[C@H](O)[C@H]12` [SGD-1960, castanospermine, reference compound]: the activity at 100 µM in test [2] was 300%.

As to `CC(=O)O[C@@H]([C@@H](C=O)OC(C)=O)[C@H](OC(C)=O)C(C)(C)OC(C)=O` [SGD-1964, 5-methylketo fucose tetraacetate], in test [2], the “inhibition … (decrease in AOL signal, dot blot)” value was “potentially strong inhibitors”; the activity at 100 µM was found to be 5%; the “dot blot results (% fucose signal of control)” value is recorded as 5 % fucose signal of control.

Take `CC(=O)OC1O[C@@H](C(C)C)[C@@H](OC(C)=O)[C@@H](OC(C)=O)[C@@H]1OC(C)=O` (stereo partly drawn) [SGD-1977, (3S,4R,5R,6S)-6-isopropyltetrahydro-2H-pyran-2,3,4,5-tetrayl tetraacetate]: the activity at 100 µM in test [2] was 79%.

For `C#C[C@@H]1OC(OC(=O)CC)[C@@H](OC(=O)CC)[C@H](OC(=O)CC)[C@@H]1OC(=O)CC` (stereo partly drawn) [SGD-2010, 5-ethynylarabinose tetrapropropanoate], in test [1], the “Inhibition at 50 μM” value is on record as above 80% and the “Inhibition at 1 mM” value is above 80%. Further, in test [2], the “% of control fucosylated IgG value” is 1.5 % of control and the “inhibition … (decrease in AOL signal, dot blot)” value is “potentially strong inhibitors”.

On to `C#CC(OC(=O)CCCCC)[C@@H](OC(=O)CCCCC)[C@@H](OC(=O)CCCCC)[C@@H](C=O)OC(=O)CCCCC` (stereo partly drawn) [SGD-2012, 5-ethynylarabinose tetrahexanoate], for which the Inhibition at 50 μM in test [1] (setting [4]) was above 80%. Also, the inhibition at 1000 µM in test [1] (CHO-DG44, 120 h) is above 80%. Besides, the activity at 100 µM in test [2] amounted to 67%.

Regarding `O=C[C@H](O)[C@@H](O)[C@@H](O)[C@H](O)CS` [SGD-2025, 6-thio galactose pentaacetate], the activity at 100 µM in test [2] came out at 44%.

As to `COC(=O)[C@@H]1OC(OC(C)=O)[C@@H](OC(C)=O)[C@H](OC(C)=O)[C@@H]1OC(C)=O` (stereo partly drawn) [SGD-2061, 6-carboxymethyl ester fucose tetraacetate], the “% of control fucosylated IgG value” in test [2] is 71 % of control.

As to `CCC(=O)[C@H](OC(C)=O)[C@@H](OC(C)=O)[C@@H](OC(C)=O)[C@@H](C=O)OC(C)=O` [SGD-2067, 6-keto-6-ethyl fucose tetraacetate], in test [2], the “inhibition … (decrease in AOL signal, dot blot)” value was “potentially strong inhibitors”; the activity at 100 µM worked out at 3%; the “dot blot results (% fucose signal of control)” value was 3 % fucose signal of control.

For the compound `CC(=O)OC(CCC#N)[C@@H](OC(C)=O)[C@@H](OC(C)=O)[C@@H](C=O)OC(C)=O` (stereo partly drawn) [SGD-2070, 5-(2-cyanoethyl)arabinose tetraacetate], in test [2], the activity at 100 µM turned out to be 51%.

For the compound `CC(=O)OC[C@@H](OC(C)=O)[C@H](OC(C)=O)[C@H](OC(C)=O)[C@H](C=O)OC(C)=O` [SGD-2074, D-galactose pentaacetate], the activity at 100 µM in test [2] amounted to 118%.

Regarding `CC(=O)OC1C=COC(C)C1OC(C)=O` (stereo not drawn) [SGD-2080, 1,2-dideoxy-1,2-dehydro fucose diacetate], the “% of control fucosylated IgG value” in test [2] is recorded as 159 % of control.

As for `CC(=O)OC1COC(C)C(OC(C)=O)C1OC(C)=O` (stereo not drawn) [SGD-2081, 1-deoxy fucose triacetate], in test [2], the “% of control fucosylated IgG value” is 70 % of control.

Turning to `CC(=O)O[C@@H]1[C@H](OC(C)=O)[C@H](C)OC(F)[C@H]1F` (stereo partly drawn) [SGD-2082, 1,2-difuloro fucose diacetate], in test [1], the “Inhibition at 50 μM” value is recorded as above 80% and the “Inhibition at 1 mM” value was above 80%. In test [2], the “% of control fucosylated IgG value” was 87 % of control.

For `C[C@H](O)[C@@H](O)[C@@H](O)[C@@H](O)C=O` [SGD-2113, 6-deoxy-L-talose], in test [2], the activity at 100 µM is 93%.
